According to patent US9593108B2, “Compounds and methods for antiviral treatment” (PTC Therapeutics, Inc., priority 2009, dated 2017):

What was measured:
[1] = tested on: HCV replicon RNA (GenBank Accession No. AJ242654); assay: HCV Replicon Assay (replicon RNA reduction and/or Fluc reporter signal); assay type: cell-based, Hepatitis C virus; conditions: Hepatitis C virus, 72 h, replicon-containing cells cultured with test compound for up to 3 days
Outline: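 IC50 values mostly reflect the drop in replicon RNA, though Fluc reporter signal may also be used. Compound incubated with cells carrying the bicistronic replicon for as long as 3 days; interferon served as positive control.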

Compound	IC50 [1]	melting point
Cc1cnc2c(c1)c(C#N)c(-c1ccc(S(=O)(=O)N[C@H](C)C(F)(F)F)cc1)n2C1CCCC1 [Cpd 262, 4-(3-cyano-1-cyclopentyl-5-methyl-1H-pyrrolo[2,3-b]pyridin-2-yl)-N-[(2R)-1,1,1-trifluoropropan-2-yl]benzenesulfonamide]	< 500 nM	189 to 195 °C
Cc1cnc2c(c1)c(C#N)c(-c1ccc(S(=O)(=O)N[C@@H](C)C(F)(F)F)cc1)n2C1CCCC1 [Cpd 263, 4-(3-cyano-1-cyclopentyl-5-methyl-1H-pyrrolo[2,3-b]pyridin-2-yl)-N-[(2S)-1,1,1-trifluoropropan-2-yl]benzenesulfonamide]	< 500 nM	191 to 196 °C
Cc1cnc2c(c1)c(C#N)c(-c1ccc(NC(C)C)cc1)n2C1CCC1 [Cpd 264, 1-cyclobutyl-5-methyl-2-[4-(propan-2-ylamino)phenyl]-1H-pyrrolo[2,3-b]pyridine-3-carbonitrile]	< 500 nM	193 to 199 °C
Cc1cnc2c(c1)c(C#N)c(-c1ccc(NC(=O)C(C)C)cc1)n2C1CCC1 [Cpd 265, N-[4-(3-cyano-1-cyclobutyl-5-methyl-1H-pyrrolo[2,3-b]pyridin-2-yl)phenyl]-2-methylpropanamide]	500 to 2000 nM	134 to 140 °C
Cc1cnc2c(c1)c(C#N)c(-c1ccc(NC(=O)NC(C)C)cc1)n2C1CCC1 [Cpd 266, 1-[4-(3-cyano-1-cyclobutyl-5-methyl-1H-pyrrolo[2,3-b]pyridin-2-yl)phenyl]-3-propan-2-ylurea]	< 500 nM	224 to 231 °C
Cc1cnc2c(c1)c(C#N)c(-c1ccc(NS(=O)(=O)C(C)C)cc1)n2C1CCC1 [Cpd 267, N-[4-(3-cyano-1-cyclobutyl-5-methyl-1H-pyrrolo[2,3-b]pyridin-2-yl)phenyl]propane-2-sulfonamide]	500 to 2000 nM	155 to 164 °C
COc1cnc2c(c1)c(C#N)c(-c1ccc(S(=O)(=O)N[C@H](C)C(F)(F)F)cn1)n2C1CCCC1 [Cpd 268, 6-(3-cyano-1-cyclopentyl-5-methoxy-1H-pyrrolo[2,3-b]pyridin-2-yl)-N-[(2R)-1,1,1-trifluoropropan-2-yl]pyridine-3-sulfonamide]	500 to 2000 nM	181 to 184 °C
C[C@H](NS(=O)(=O)c1ccc(-c2c(C#N)c3cc(Cl)cnc3n2-c2ncccn2)nc1)C(F)(F)F [Cpd 270, 6-[5-chloro-3-cyano-1-(pyrimidin-2-yl)-1H-pyrrolo[2,3-b]pyridin-2-yl]-N-[(2S)-1,1,1-trifluoropropan-2-yl]pyridine-3-sulfonamide]	< 500 nM	223 to 225 °C
COc1cnc2c(c1)c(C#N)c(-c1ccc(S(=O)(=O)NC(C)(C)C)cn1)n2C1CCC1 [Cpd 271, N-tert-butyl-6-(3-cyano-1-cyclobutyl-5-methoxy-1H-pyrrolo[2,3-b]pyridin-2-yl)pyridine-3-sulfonamide]	500 to 2000 nM	174 to 176 °C
CSc1cnc2c(c1)c(C#N)c(-c1ccc(S(=O)(=O)N[C@@H](C)C(F)(F)F)cn1)n2C1CCCC1 [Cpd 272, 6-[3-cyano-1-cyclopentyl-5-(methylsulfanyl)-1H-pyrrolo[2,3-b]pyridin-2-yl]-N-[(2S)-1,1,1-trifluoropropan-2-yl]pyridine-3-sulfonamide]	< 500 nM	168 to 172 °C
CSc1cnc2c(c1)c(C#N)c(-c1ccc(S(=O)(=O)N[C@H](C)C(F)(F)F)cn1)n2C1CCCC1 [Cpd 273, 6-[3-cyano-1-cyclopentyl-5-(methylsulfanyl)-1H-pyrrolo[2,3-b]pyridin-2-yl]-N-[(2R)-1,1,1-trifluoropropan-2-yl]pyridine-3-sulfonamide]	< 500 nM	124 to 127 °C
CSc1cnc2c(c1)c(C#N)c(-c1ccc(S(=O)(=O)NC3(C(F)(F)F)CC3)cn1)n2C1CCCC1 [Cpd 274, 6-[3-cyano-1-cyclopentyl-5-(methylsulfanyl)-1H-pyrrolo[2,3-b]pyridin-2-yl]-N-[1-(trifluoromethyl)cyclopropyl]pyridine-3-sulfonamide]	< 500 nM	200 to 203 °C
C[C@H](NS(=O)(=O)c1ccc(-c2c(C#N)c3cc(O)cnc3n2C2CCC2)nc1)C(F)(F)F [Cpd 275, 6-(3-cyano-1-cyclobutyl-5-hydroxy-1H-pyrrolo[2,3-b]pyridin-2-yl)-N-[(2S)-1,1,1-trifluoropropan-2-yl]pyridine-3-sulfonamide]	< 500 nM	240 to 242 °C
CC[C@H](NS(=O)(=O)c1ccc(-c2c(C#N)c3cc(Cl)cnc3n2C2CCC2)nc1)C(F)(F)F [Cpd 276, 6-(5-chloro-3-cyano-1-cyclobutyl-1H-pyrrolo[2,3-b]pyridin-2-yl)-N-[(2S)-1,1,1-trifluorobutan-2-yl]pyridine-3-sulfonamide]	< 500 nM	186 to 191 °C
COc1cnc2c(c1)c(C#N)c(-c1cc(C)c(S(=O)(=O)N[C@@H](C)C(F)(F)F)cn1)n2C1CCC1 [Cpd 277, 6-(3-cyano-1-cyclobutyl-5-methoxy-1H-pyrrolo[2,3-b]pyridin-2-yl)-4-methyl-N-[(2S)-1,1,1-trifluoropropan-2-yl]pyridine-3-sulfonamide]	< 500 nM	175 to 179 °C
Cc1cc(-c2c(C#N)c3cc(Cl)cnc3n2C2CCCC2)ncc1S(=O)(=O)N[C@@H](C)C(F)(F)F [Cpd 278, 6-(5-chloro-3-cyano-1-cyclopentyl-1H-pyrrolo[2,3-b]pyridin-2-yl)-4-methyl-N-[(2S)-1,1,1-trifluoropropan-2-yl]pyridine-3-sulfonamide]	< 500 nM	190 to 195 °C
CC[C@H](NS(=O)(=O)c1ccc(-c2c(C#N)c3cc(C)cnc3n2C2CCC2)nc1)C(F)(F)F [Cpd 279, 6-(3-cyano-1-cyclobutyl-5-methyl-1H-pyrrolo[2,3-b]pyridin-2-yl)-N-[(2S)-1,1,1-trifluorobutan-2-yl]pyridine-3-sulfonamide]	< 500 nM	138 to 144 °C
N#Cc1c(-c2ccc(S(=O)(=O)NC3CCC3)cn2)n(C2CCC2)c2ncc(Cl)cc12 [Cpd 283, 6-(5-chloro-3-cyano-1-cyclobutyl-1H-pyrrolo[2,3-b]pyridin-2-yl)-N-cyclobutylpyridine-3-sulfonamide]	< 500 nM	178 to 180 °C
C[C@H](NS(=O)(=O)c1cnc(-c2c(C#N)c3cc(Cl)cnc3n2C2CCC2)nc1)C(F)(F)F [Cpd 285, 2-(5-chloro-3-cyano-1-cyclobutyl-1H-pyrrolo[2,3-b]pyridin-2-yl)-N-[(2S)-1,1,1-trifluoropropan-2-yl]pyrimidine-5-sulfonamide]	< 500 nM	205 to 207 °C
CC1(NS(=O)(=O)c2cnc(-c3c(C#N)c4cc(Cl)cnc4n3C3CCC3)nc2)CC1 [Cpd 286, 2-(5-chloro-3-cyano-1-cyclobutyl-1H-pyrrolo[2,3-b]pyridin-2-yl)-N-(1-methylcyclopropyl)pyrimidine-5-sulfonamide]	< 500 nM	237 to 240 °C
C[C@H](NS(=O)(=O)c1ccc(-c2c(C#N)c3ncc(Cl)cc3n2C2CCCCC2)cc1)C(F)(F)F [Cpd 287, 4-(6-chloro-3-cyano-1-cyclohexyl-1H-pyrrolo[3,2-b]pyridin-2-yl)-N-[(2S)-1,1,1-trifluoropropan-2-yl]benzenesulfonamide]	500 to 2000 nM	300 to 305 °C
CC(C)(C)S(=O)(=O)Nc1ccc(-c2c(C#N)c3ncc(Cl)cc3n2C2CCCCC2)cc1 [Cpd 288, N-[4-(6-chloro-3-cyano-1-cyclohexyl-1H-pyrrolo[3,2-b]pyridin-2-yl)phenyl]-2-methylpropane-2-sulfonamide]	500 to 2000 nM	279 to 283 °C
Cc1cnc2c(c1)c(C#N)c(-c1cc(C)c(S(=O)(=O)N[C@@H](C)C(F)(F)F)cn1)n2C1CCC1 [Cpd 289, 6-(3-cyano-1-cyclobutyl-5-methyl-1H-pyrrolo[2,3-b]pyridin-2-yl)-4-methyl-N-[(2S)-1,1,1-trifluoropropan-2-yl]pyridine-3-sulfonamide]	< 500 nM	218 to 223 °C
Cc1cc(S(=O)(=O)N[C@@H](C)C(F)(F)F)cnc1-c1c(C#N)c2cc(Cl)cnc2n1C1CCCC1 [Cpd 290, 6-(5-chloro-3-cyano-1-cyclopentyl-1H-pyrrolo[2,3-b]pyridin-2-yl)-5-methyl-N-[(2S)-1,1,1-trifluoropropan-2-yl]pyridine-3-sulfonamide]	< 500 nM	240 to 245 °C
Cc1cnc2c(c1)c(C#N)c(-c1ncc(S(=O)(=O)N[C@@H](C)C(F)(F)F)cc1C)n2C1CCC1 [Cpd 291, 6-(3-cyano-1-cyclobutyl-5-methyl-1H-pyrrolo[2,3-b]pyridin-2-yl)-5-methyl-N-[(2S)-1,1,1-trifluoropropan-2-yl]pyridine-3-sulfonamide]	< 500 nM	181 to 185 °C
COc1cnc2c(c1)c(C#N)c(-c1ncc(S(=O)(=O)N[C@@H](C)C(F)(F)F)cc1C)n2C1CCC1 [Cpd 292, 6-(3-cyano-1-cyclobutyl-5-methoxy-1H-pyrrolo[2,3-b]pyridin-2-yl)-5-methyl-N-[(2S)-1,1,1-trifluoropropan-2-yl]pyridine-3-sulfonamide]	< 500 nM	180 to 183 °C
Cc1cnc2c(c1)c(C#N)c(-c1ccc(S(=O)(=O)NC(C)(C)C)cn1)n2C1CCC1 [Cpd 293, N-tert-butyl-6-(3-cyano-1-cyclobutyl-5-methyl-1H-pyrrolo[2,3-b]pyridin-2-yl)pyridine-3-sulfonamide]	< 500 nM	173 to 175 °C
C[C@H](NS(=O)(=O)c1ccc(-c2c(C#N)c3cc(O)cnc3n2C2CCCC2)nc1)C(F)(F)F [Cpd 294, 6-(3-cyano-1-cyclopentyl-5-hydroxy-1H-pyrrolo[2,3-b]pyridin-2-yl)-N-[(2S)-1,1,1-trifluoropropan-2-yl]pyridine-3-sulfonamide]	< 500 nM	221 to 223 °C
